According to patent publication US8877717B2, “Anti-diabetic extract of rooibos” (Zadec ApS, priority 2007, dated 2014):

What was measured:
[1] = tested on: diabetic rats; assay: Flavonoids administered to diabetic rats (blood sugar); format: in vivo
[2] = Bioassay of purified fractions for anti-diabetic activity
Text: The partially purified active extract may be dissolved in methanol, and may be further fractionated by column chromatography, employing silica gel as an adsorption medium and a chloroform/30% methanol mixture as an eluent. A plurality of different fractions may be obtained, and each may be evaluated, by suitable bioassaying procedures, to determine the anti-diabetic activity thereof.
A fraction having anti-diabetic activity may preferably be further fractionated such as by column chromatography using silica gel as an adsorption medium and a 9:1 chloroform:methanol solvent, and the resultant sub-fractions bioassayed for their anti-diabetic activity. A sub-fraction displaying anti-diabetic activity may, if desired, be further fractionated and purified, conveniently using a column chromatographic procedure with silica gel as the adsorption medium and a 9:1 ethylacetate:hexane solvent. The resultant purified fractions may again be evaluated by suitable bioassay procedures for their anti-diabetic activity.

## O=C(CCc1ccc(O)c(O)c1)c1c(O)cc(O)c([C@@H]2O[C@H](CO)[C@@H](O)[C@H](O)[C@H]2O)c1O [aspalathin, 3′-C-fl-D-glucopyranosyl-2′,3,4,4′,6′-pentahydroxydihydrochalcone]
[1]; T1D and T2D rats
  lowering the blood sugar and alleviating diabetic symptoms: effective
[1]; flavonoids extracted and fractionated from Aspalathus
  effect in diabetic rats compared with the extract: results similar to those produced by the extract
[2]
  anti-diabetic activity of purified fraction: good anti-diabetic activity
